pIC50: −log10 of the molar value.
Key:
[1] = biological target: T1, Estrogenic Receptor of Mouse Uterus (Mus musculus, UniProt P19785); test: Relative affinity of the bond, estrogen receptor (tritiated estradiol displacement); type: binding; settings: for affinity for the estrogen receptors: at the second time (incubation); for Relative affinity of the bond (RAB), Oestrogen, 2 H: incubation 2 H at 0° C.; for Relative affinity of the bond (RAB), Oestrogen, 2 H / Relative affinity of the bond (RAB), Oestrogen, 6 H / Relative affinity of the bond (RAB), Oestrogen Receptors, 5 Hrs / Relative affinity of the bond (RAB), Oestrogen Receptors, 2 Hrs: RAB=100(CH)/(CX); for Relative affinity of the bond (RAB), Oestrogen, 6 H: incubation 6 H (second time); for Relative affinity of the bond (RAB), Oestrogen Receptors, 5 Hrs: incubation time 5 Hrs; for Relative affinity of the bond (RAB), Oestrogen Receptors, 5 Hrs / Relative affinity of the bond (RAB), Oestrogen Receptors, 2 Hrs: second part of the table; for Relative affinity of the bond (RAB), Oestrogen Receptors, 2 Hrs: incubation time 2 Hrs
T1 construct: their uteri were removed, then homogenized at 0° C; from tissue; host or cells: uterine cytosol (105,000 g supernatant) of immature female mice
T1 sequence (P19785 1-599): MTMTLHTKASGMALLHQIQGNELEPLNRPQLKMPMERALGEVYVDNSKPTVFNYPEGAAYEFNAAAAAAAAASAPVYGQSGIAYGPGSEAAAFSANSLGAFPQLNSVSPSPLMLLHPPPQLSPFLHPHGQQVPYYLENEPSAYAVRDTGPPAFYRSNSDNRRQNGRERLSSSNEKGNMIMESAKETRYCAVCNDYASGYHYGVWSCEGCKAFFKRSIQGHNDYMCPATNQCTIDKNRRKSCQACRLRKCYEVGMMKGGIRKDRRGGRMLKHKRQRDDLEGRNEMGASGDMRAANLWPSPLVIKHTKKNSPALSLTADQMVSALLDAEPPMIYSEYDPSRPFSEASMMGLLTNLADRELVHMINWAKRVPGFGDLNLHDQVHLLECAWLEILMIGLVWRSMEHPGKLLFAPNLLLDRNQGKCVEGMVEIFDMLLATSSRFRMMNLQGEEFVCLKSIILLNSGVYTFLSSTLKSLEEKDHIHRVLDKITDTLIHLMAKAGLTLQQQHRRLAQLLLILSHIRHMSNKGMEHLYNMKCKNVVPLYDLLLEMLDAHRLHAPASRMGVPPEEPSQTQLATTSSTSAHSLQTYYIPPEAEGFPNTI
Protocol: Estrogenic Receptor of Mouse Uterus:
Impuberal female mice aged from 18 to 21 days were killed and their uteri were removed, then homogenized at 0° C. with the aid of a Potter teflon-glass in a TS buffered solution (10 mM Tris, 0.25 M saccharose, HCL pH 7.4) (1 g of tissue for 25 ml of TS). The homogenate was ultracentrifuged (105,000 g×90 min) at 0° C. and aliquots of the supernatant were incubated at 0° C. or at 25° C. for a time (t) with a constant concentration (T) of tritiated estradiol in the presence of increasing concentrations (0-1000×10^−9 M) either of cold estradiol, or of the cold product to be tested. The concentration (B) of bound tritiated estradiol was measured in each incubate by the technique of adsorption on dextran carbon.
Calculation of the Relative Affinty of the Bond
The calculation of the Relative Affinity of the Bond (RAB) was identical for all the receptors. The following 2 curves were traced; the percentage of the bound tritiated hormone [formula]
was a function of the logarithm of the concentration of the cold reference hormone and [formula]
as a function of the logarithm of the concentration of the cold product tested.
One determined the straight line of the equation [formula]
The intersections of the straight line I50 and of the curves make it possible to evaluate the concentrations of the cold reference hormone (CH) and of the tested cold product (CX) which inhibit to an extend of 50% the binding of the tritiated hormone upon the receptor. The relative affinity of the bond (RAB) of the tested product is determined by the equation

[2] = tested on: MCF-7 mammary tumoral cells; test: Anti-proliferative activity upon the growth of MCF-7 cells (DNA measurement with DABA); type: cell-based; settings: 6 days, inhibition of the increase of DNA, read-out: concentration which inhibited the growth of MCF7 to an extent of 50% (IC50)
Protocol: B. Anti-proliferative activity of the products of the invention upon the growth of MCF-7 mammary tumoral cells.
The MCF-7 strains were kept under culture in FCS(1) medium at 37° C. under a humid atmosphere containing 5% CO2 and the cells at subconfluence were harvested by trypsination (0.05% trypsine, 0.02% EDTA), then rinsed by gentle centrifugation. A sample of the cells in suspension was counted on Malassez cell.
The cells, resuspended in FCS medium, were seeded at a rate of 30,000 cells per pit in multi-pit plates (24 pits of 2.5 cm^2) and twenty four hours after seeding (DO), the product to be tested was added to the medium in ethanolic solution (final concentration in ethanol: 0.1%), at a concentration of 10^−12 to 10^−6 M, the control pits receiving the same concentration of ethanol. The media were renewed every 48 hours and at the end of the experiment (D6), the medium was sucked off and the cells were immediately fixed with 150 microliters of methanol to estimate the DNA. The anti-proliferative activity of the products was evaluated by their capacity to inhibit the increase of DNA.
The DNA was measured by a fluorimetric method employing DABA (3,5-diaminobenzoic acid) (2): 150 microliters of DABA were added to each of the pits and the plates were then incubated for 45 minutes at 56° C., then 2 ml of 1 N HCl were added. The fluorescence was measured with the aid of a fluorimeter (length of the exiting wave: 408 nm, length of the emitting wave: 501 nm). The quantity of DNA per pit was evaluated with reference to a standard scale obtained by treating a standard DNA from calf thymus under the same conditions.
The concentration in nM which inhibited the growth of MCF7 to an extent of 50% (IC50) was determined in the manner indicated below:
(1) The fetal calf serum (FCS) culture medium was prepared as follows: MEM medium (minimal essential medium) to which were added:
Non-essential amino acids (GIBCO),
Peni-strepto (100 U/ml penicillin, 0.1 mg/ml streptomycin),
Fetal calf serum containing no steroids (10% final concentration).
(2) Puzas and Goodman, Analytical Biochemistry, Vol. 86, pp. 50, 1978.

Relative affinity of the bond (RAB), Oestrogen, 2 H [1]	Relative affinity of the bond (RAB), Oestrogen, 6 H [1]	pIC50 [2]	Relative affinity of the bond (RAB), Oestrogen Receptors, 5 Hrs [1]	Relative affinity of the bond (RAB), Oestrogen Receptors, 2 Hrs [1]	Structure (SMILES)	affinity for the estrogen receptors [1]
0.6	50	10.00	–	–	CC(C)N(C)C(=O)COCCCCCCCC[C@H]1C[C@]2(C)[C@@H](O)CC[C@H]2[C@@H]2CCc3cc(O)ccc3[C@@H]12 [Example 71, [[8(3,17beta-dihydroxy-estra-1,3,5(10)-trien-11beta-yl)-octyl]-oxy]-N-methyl-N-(1-methylethyl) acetamide]	marked affinity
–	–	11.05	11.7	–	CCCCN(C)C(=O)CSCCCCCc1ccc([C@H]2C[C@]3(C)[C@@H](O)CC[C@H]3[C@@H]3CCc4cc(O)ccc4[C@H]32)cc1 [Example 86]	–
4.0	3.0	11.70	–	–	CCCCN(C)C(=O)COCCCCCOc1ccc([C@H]2C[C@]3(C)[C@@H](O)CC[C@H]3[C@@H]3CCc4cc(O)ccc4[C@H]32)cc1 [Example 43, N-butyl-[5-[4-(3,17β-dihydroxy-Δ^1,3,5(10)-estratrien-11β-yl)-phenoxy]-pentyloxy]-N-methyl acetamide]	–
–	–	10.46	16	–	CCCCN(C)C(=S)CCCCCCCOc1ccc([C@H]2C[C@]3(C)[C@@H](O)CC[C@H]3[C@@H]3CCc4cc(O)ccc4[C@H]32)cc1 [Example 79, N-butyl-8-(4-(3,17β-dihydroxy-δ^1,3,5(10)-estratrien-11β-yl)-phenoxy)-N-methyloctanethioamide]	–
–	–	–	16	–	CCCCN(C)C(=O)CSCCCCCOc1ccc([C@H]2C[C@]3(C)[C@@H](OC(=O)CCC(=O)O)CC[C@H]3[C@@H]3CCc4cc(O)ccc4[C@H]32)cc1 [Example 96, Monobutanedioate of 11β-(4-(5-((2-(Butyl-Methylamino)-2-Oxoethyl)-Thio)-Pentyloxy)-Phenyl)δ^1,3,5(10)-Estratrien-3-ol-17 β-yl]	–
–	–	10.82	47	2.8	CCCCN(C)C(=O)CCCCCCCSc1ccc([C@H]2C[C@]3(C)[C@@H](O)CC[C@H]3[C@@H]3CCc4cc(O)ccc4[C@H]32)cc1 [Example 92, N-Butyl-8-(4-(δ^1,3,5(10)-Estratrien-3,17β-Diol-11 β-yl)-Phenyl-Thio)-N-Methyl-Octanamide]	marked affinity
1.2	45	11.00	–	–	C#C[C@]1(O)CC[C@H]2[C@@H]3CCc4cc(O)ccc4[C@H]3[C@@H](CCCCCCCCCCC(=O)N(C)C(C)C)C[C@@]21C [Example 55, 3,17β-Dihydroxy-N-Methyl-N-Isopropyl-19-Nor-17α-Δ^1,3,5(10)-Pregnatrien-20-Yn-118-Undecanamide]	marked affinity
–	–	10.52	20	–	CCCCN(C)C(=S)COCCCCCOc1ccc([C@H]2C[C@]3(C)[C@@H](O)CC[C@H]3[C@@H]3CCc4cc(O)ccc4[C@H]32)cc1 [Example 78, N-butyl-[5-[4-(3,17β-dihydroxy-δ^1,3,5(10)-estratrien-11β-yl)-phenoxy]-pentyloxy]-N-methyl-ethanethioamide]	–
0.13	12	10.40	–	–	CCCCN(C)C(=O)CCCCCC#Cc1ccc([C@H]2C[C@]3(C)[C@@H](O)CC[C@H]3[C@@H]3CCc4cc(O)ccc4[C@H]32)cc1 [Example 35]	–
–	–	10.70	23	0	CN(CC(F)(F)C(F)(F)C(F)(F)F)C(=O)CCCCCCCOc1ccc([C@H]2C[C@]3(C)[C@@H](O)CC[C@H]3[C@@H]3CCc4cc(O)ccc4[C@H]32)cc1 [Example 82, 8-(4-(δ^1,3,5(10)-estratrien-3,17β-diol-11β-yl)-phenoxy)-N-(2,2,3,3,4,4,4-heptafluorobutyl)-N-methyl-octanamide]	–
–	–	11.15	29	3.3	CCCCN(C)C(=O)COCCCCCCOc1ccc([C@H]2C[C@]3(C)[C@@H](O)CC[C@H]3[C@@H]3CCc4cc(O)ccc4[C@H]32)cc1 [Example 83]	–

Structure (SMILES)	Relative affinity of the bond (RAB), Oestrogen, 2 H [1]	Relative affinity of the bond (RAB), Oestrogen, 6 H [1]	pIC50 [2]	Relative affinity of the bond (RAB), Oestrogen Receptors, 5 Hrs [1]	Relative affinity of the bond (RAB), Oestrogen Receptors, 2 Hrs [1]	affinity for the estrogen receptors [1]
CCCCN(C)C(=O)COCCCCCC#Cc1ccc([C@H]2C[C@]3(C)[C@@H](O)CC[C@H]3[C@@H]3CCc4cc(O)ccc4[C@H]32)cc1 [Example 37, 2-((7-(4-(3,17β-dihydroxy-Δ^1,3,5(10)-estratrien-11β-yl)-phenyl)-6-heptynyl.)-oxy)-N-butyl-N-methyl Acetamide]	0.6	28	10.52	–	–	marked affinity
CCCCN(C)C(=O)CCCCCCCc1ccc([C@H]2C[C@]3(C)[C@@H](O)CC[C@H]3[C@@H]3CCc4cc(O)ccc4[C@H]32)cc1 [Example 8, N-Butyl-4-[3,17β-dihydroxy-Δ^1,3,5(10)-estratrien-11β-yl]-N-methyl benzene octanamide]	–	–	10.40	–	–	marked affinity
CCCCN(C)C(=O)CCCCCCCOc1ccc([C@H]2C[C@]3(C)[C@@H](O)CC[C@H]3[C@@H]3CCc4cc(O)ccc4[C@H]32)cc1 [Example 46, N-butyl-8-[4-(3,17β-dihydroxy-Δ^1,3,5,(10)-estratrien-11β-yl)-phenoxy]-N-methyl Octanamide]	0.3	65	11.22	–	–	marked affinity

From patent US6790971B1, “19-Nor-steroids” (Aventis Pharma S.A., priority 1989, dated 2004)
